Test system: T1, BLC23O
T1 construct: 6xHis-tag, expressed in E. coli BL21 (DE3); Ni-NTA and size exclusion; Mn2+-dependent
Experiment: absorbance of ring-cleavage product at […] nm, Michaelis-Menten fit
Assay type: biochemical, Halalkalibacterium ligniniphilum
Settings: 50 mM HEPES pH 7.6, 10 μM Mn2+, 32.5 °C (optimal conditions)

Km: 540 ± 20 µM
SMILES: Cc1cccc(O)c1O [3-methylcatechol]

Source: paper PMC10620931, “Assay Development for Metal-Dependent Enzymes—Influence of Reaction Buffers on Activities and Kinetic Characteristics” (ACS Omega, 2023)
